Source: US20210284633A1, “3-(2-THIENYL)-5-(TRIFLUOROMETHYL)-1,2,4-OXADIAZOLE DERIVATIVES AS AGROCHEMICAL FUNGICIDES” (SYNGENTA CROP PROTECTION AG, priority 2018, published 2021)

What was measured:
[1] = test system: Puccinia recondita f. Sp. tritici; test: Puccinia recondita f. sp. tritici / wheat / leaf disc preventative (brown rust); format: in vivo; details: foliar, 200 ppm in the applied formulation, wheat leaf segments cv. Kanzler, inoculated 1 day after application, assessed 7 to 9 days after application, compared to untreated, read-out: disease control
Method: Leaf disks or leaf segments of various plant species are cut from plants grown in a greenhouse. The cut leaf disks or segments are placed in multiwell plates (24-well format) onto water agar. The leaf disks are sprayed with a test solution before (preventative) or after (curative) inoculation. Compounds to be tested are prepared as DMSO solutions (max. 10 mg/mL) which are diluted to the appropriate concentration with 0.025% Tween20 just before spraying. The inoculated leaf disks or segments are incubated under defined conditions (temperature, relative humidity, light, etc.) according to the respective test system. A single evaluation of disease level is carried out 3 to 14 days after inoculation, depending on the pathosystem. Percent disease control relative to the untreated check leaf disks or segments is then calculated. Example 1: Fungicidal Activity Against Puccinia recondita f. Sp. tritici/Wheat/Leaf Disc Preventative (Brown Rust) Wheat leaf segments cv. Kanzler were placed on agar in multiwell plates (24-well format) and sprayed with the formulated test compound diluted in water. The leaf disks were inoculated with a spore suspension of the fungus 1 day after application. The inoculated leaf segments were incubated at 19° C. and 75% relative humidity (rh) under a light regime of 12 hours light/12 hours darkness in a climate cabinet and the activity of a compound was assessed as percent disease control compared to untreated when an appropriate level of disease damage appears in untreated check leaf segments (7 to 9 days after application). The following compounds at 200 ppm in the applied formulation give at least 80% disease control in this test when compared to untreated control leaf disks under the same conditions, which show extensive disease development.

[2] = test system: Phakopsora pachurhizi; test: Phakopsora pachurhizi / soybean / leaf disc preventative (Asian soybean rust); format: in vivo; details: Glycine max, foliar, 200 ppm in the applied formulation, soybean leaf disks, inoculated one day after application, assessed 12 to 14 days after application, compared to untreated, read-out: disease control
Method: Leaf disks or leaf segments of various plant species are cut from plants grown in a greenhouse. The cut leaf disks or segments are placed in multiwell plates (24-well format) onto water agar. The leaf disks are sprayed with a test solution before (preventative) or after (curative) inoculation. Compounds to be tested are prepared as DMSO solutions (max. 10 mg/mL) which are diluted to the appropriate concentration with 0.025% Tween20 just before spraying. The inoculated leaf disks or segments are incubated under defined conditions (temperature, relative humidity, light, etc.) according to the respective test system. A single evaluation of disease level is carried out 3 to 14 days after inoculation, depending on the pathosystem. Percent disease control relative to the untreated check leaf disks or segments is then calculated.
Example 3: Fungicidal Activity Against Phakopsora pachurhizi/Soybean/Leaf Disc Preventative (Asian Soybean Rust)
Soybean leaf disks are placed on water agar in multiwell plates (24-well format) and sprayed with the formulated test compound diluted in water. One day after application leaf discs are inoculated by spraying a spore suspension on the lower leaf surface. After an incubation period in a climate cabinet of 24-36 hours in darkness at 20° C. and 75% rh leaf disc are kept at 20° C. with 12 hours light/day and 75% rh. The activity of a compound is assessed as percent disease control compared to untreated when an appropriate level of disease damage appears in untreated check leaf disks (12 to 14 days after application).
The following compounds at 200 ppm in the applied formulation give at least 80% disease control in this test when compared to untreated control leaf disks under the same conditions, which show extensive disease development.

[3] = test system: Puccinia recondita f. Sp. tritici; test: Puccinia recondita f. sp. tritici / wheat / leaf disc curative (brown rust); format: in vivo; details: foliar, 200 ppm in the applied formulation, wheat leaf segments cv. Kanzler, applied 1 day after inoculation, assessed 6 to 8 days after application, compared to untreated, read-out: disease control
Method: Leaf disks or leaf segments of various plant species are cut from plants grown in a greenhouse. The cut leaf disks or segments are placed in multiwell plates (24-well format) onto water agar. The leaf disks are sprayed with a test solution before (preventative) or after (curative) inoculation. Compounds to be tested are prepared as DMSO solutions (max. 10 mg/mL) which are diluted to the appropriate concentration with 0.025% Tween20 just before spraying. The inoculated leaf disks or segments are incubated under defined conditions (temperature, relative humidity, light, etc.) according to the respective test system. A single evaluation of disease level is carried out 3 to 14 days after inoculation, depending on the pathosystem. Percent disease control relative to the untreated check leaf disks or segments is then calculated. Example 2: Fungicidal Activity Against Puccinia recondita f. sp. tritici/Wheat/Leaf Disc Curative (Brown Rust) Wheat leaf segments cv. Kanzler are placed on agar in multiwell plates (24-well format). The leaf segments are then inoculated with a spore suspension of the fungus. Plates were stored in darkness at 19° C. and 75% relative humidity. The formulated test compound diluted in water was applied 1 day after inoculation. The leaf segments were incubated at 19° C. and 75% relative humidity under a light regime of 12 hours light/12 hours darkness in a climate cabinet and the activity of a compound was assessed as percent disease control compared to untreated when an appropriate level of disease damage appears in untreated check leaf segments (6 to 8 days after application). The following compounds at 200 ppm in the applied formulation give at least 80% disease control in this test when compared to untreated control leaf disks under the same conditions, which show extensive disease development.

[4] = test system: Glomerella lagenarium; test: Glomerella lagenarium liquid culture / cucumber / preventative (anthracnose); format: cell-based; details: Colletotrichum orbiculare; 20 ppm in the applied formulation; liquid culture in PDB, 24° C.; measured 3 to 4 days after application; compared to untreated; read-out: disease control (inhibition of growth, photometric)
Method: Mycelia fragments or conidia suspensions of a fungus prepared either freshly from liquid cultures of the fungus or from cryogenic storage, are directly mixed into nutrient broth. DMSO solutions of the test compound (max. 10 mg/mL) are diluted with 0.025% Tween20 by a factor of 50 and 10 μL of this solution is pipetted into a microtiter plate (96-well format). The nutrient broth containing the fungal spores/mycelia fragments is then added to give an end concentration of the tested compound. The test plates are incubated in the dark at 24° C. and 96% relative humidity. The inhibition of fungal growth is determined photometrically after 2 to 7 days, depending on the pathosystem, and percent antifungal activity relative to the untreated check is calculated. Example 4: Fungicidal activity against Glomerella lagenarium liquid culture/cucumber/Preventative (Anthracnose) Conidia of the fungus from cryogenic storage are directly mixed into nutrient broth (PDB—potato dextrose broth). After placing a (DMSO) solution of test compound into a microtiter plate (96-well format), the nutrient broth containing the fungal spores is added. The test plates are incubated at 24° C. and the inhibition of growth is measured photometrically 3 to 4 days after application. The following compounds at 20 ppm in the applied formulation give at least 80% disease control in this test when compared to untreated control under the same conditions, which show extensive disease development.

Row | melting point | SMILES | pest or weed control at 200 ppm [1] | pest or weed control at 200 ppm [2] | pest or weed control at 200 ppm [3] | inhibition at 20 ppm [4]
1 | 98 to 112 °C | Cc1ccc(C(=O)c2ccc(-c3noc(C(F)(F)F)n3)s2)nc1C [Compound 1.8, (5,6-dimethyl-2-pyridyl)-[5-[5-(trifluoromethyl)-1,2,4-oxadiazol-3-yl]-2-thienyl]methanone] | ≥ 80% | ≥ 80% | ≥ 80% | –
2 | 40 to 45 °C | Cc1ccc(Cc2ccc(-c3noc(C(F)(F)F)n3)s2)nc1 [Compound 1.11, 3-[5-[(5-methyl-2-pyridyl)methyl]-2-thienyl]-5-(trifluoromethyl)-1,2,4-oxadiazole] | ≥ 80% | ≥ 80% | ≥ 80% | ≥ 80%
3 | – | Cc1cnc(Cc2ccc(-c3noc(C(F)(F)F)n3)s2)cn1 [Compound 1.1, 3-[5-[(5-methylpyrazin-2-yl)methyl]-2-thienyl]-5-(trifluoromethyl)-1,2,4-oxadiazole] | ≥ 80% | ≥ 80% | ≥ 80% | ≥ 80%
4 | 95 to 100 °C | Cc1cnc(C(O)c2ccc(-c3noc(C(F)(F)F)n3)s2)cn1 (stereo not drawn) [Compound 1.3, (5-methylpyrazin-2-yl)-[5-[5-(trifluoromethyl)-1,2,4-oxadiazol-3-yl]-2-thienyl]methanol] | ≥ 80% | ≥ 80% | ≥ 80% | ≥ 80%
5 | 110 to 116 °C | O=C(c1ncccn1)c1ccc(-c2noc(C(F)(F)F)n2)s1 [Compound 1.7, pyrimidin-2-yl-[5-[5-(trifluoromethyl)-1,2,4-oxadiazol-3-yl]-2-thienyl]methanone] | ≥ 80% | ≥ 80% | ≥ 80% | ≥ 80%
6 | 95 to 105 °C | O=C(c1cnccn1)c1ccc(-c2noc(C(F)(F)F)n2)s1 [Compound 1.5, pyrazin-2-yl-[5-[5-(trifluoromethyl)-1,2,4-oxadiazol-3-yl]-2-thienyl]methanone] | ≥ 80% | ≥ 80% | ≥ 80% | ≥ 80%
7 | 111 to 114 °C | Cc1ccc(C(=O)c2ccc(-c3noc(C(F)(F)F)n3)s2)nc1 [Compound 1.12, (5-methyl-2-pyridyl)-[5-[5-(trifluoromethyl)-1,2,4-oxadiazol-3-yl]-2-thienyl]methanone] | ≥ 80% | ≥ 80% | ≥ 80% | ≥ 80%
8 | – | OC(c1cnccn1)c1ccc(-c2noc(C(F)(F)F)n2)s1 (stereo not drawn) [Compound 1.6, pyrazin-2-yl-[5-[5-(trifluoromethyl)-1,2,4-oxadiazol-3-yl]-2-thienyl]methanol] | ≥ 80% | – | ≥ 80% | ≥ 80%
9 | – | CCC(O)(c1ccc(C)cn1)c1ccc(-c2noc(C(F)(F)F)n2)s1 (stereo not drawn) [Compound 1.10, 1-(5-methyl-2-pyridyl)-1-[5-[5-(trifluoromethyl)-1,2,4-oxadiazol-3-yl]-2-thienyl]propan-1-ol] | ≥ 80% | ≥ 80% | ≥ 80% | ≥ 80%
10 | – | FC(F)(F)c1nc(-c2ccc(Cc3cnccn3)s2)no1 [Compound 1.4, 3-[5-(pyrazin-2-ylmethyl)-2-thienyl]-5-(trifluoromethyl)-1,2,4-oxadiazole] | ≥ 80% | ≥ 80% | ≥ 80% | ≥ 80%
11 | 80 to 85 °C | O=C(c1cnc(Cl)cn1)c1ccc(-c2noc(C(F)(F)F)n2)s1 [Compound 1.9, (5-chloropyrazin-2-yl)-[5-[5-(trifluoromethyl)-1,2,4-oxadiazol-3-yl]-2-thienyl]methanone] | ≥ 80% | – | ≥ 80% | ≥ 80%
12 | 105 to 110 °C | Cc1cnc(C(=O)c2ccc(-c3noc(C(F)(F)F)n3)s2)cn1 [Compound 1.2, (5-methylpyrazin-2-yl)-[5-[5-(trifluoromethyl)-1,2,4-oxadiazol-3-yl]-2-thienyl]methanone] | ≥ 80% | ≥ 80% | ≥ 80% | ≥ 80%
13 | – | Cc1ccc(C(O)c2ccc(-c3noc(C(F)(F)F)n3)s2)nc1 (stereo not drawn) [Compound 1.13, (5-methyl-2-pyridyl)-[5-[5-(trifluoromethyl)-1,2,4-oxadiazol-3-yl]-2-thienyl]methanol] | ≥ 80% | ≥ 80% | ≥ 80% | ≥ 80%
